Results published in US9145414B2, “1,2,4-triazine-6-carboxamide derivative” (TAIHO PHARMACEUTICAL CO., LTD., priority 2011, dated 2015).

How the values were obtained:
human Syk protein = human Syk protein (Homo sapiens (Human), UniProt P43405); test: Syk kinase inhibition test; format: biochemical; details: Table 95; read-out: SYK inhibitory activity IC50
Protocol: Finally, phosphorylated peptides and non-phosphorylated peptides were separated therebetween using LabChip™ 3000 system (Caliper Life Sciences, Inc., excitation wavelength: 488 nm, detection wavelength: 530 nm). Their respective amounts were measured, and the rate of phosphorylation reaction was then determined from the ratio between the amounts. The concentration at which the compound can inhibit 50% phosphorylation reaction is defined as an IC50 value (μM).
Also, known 1,2,4-triazine-6-carboxamide derivatives A, B, and C (WO2000/075113 (A: compound No. 121 and B: compound No. 154) and WO2000/076980 (C: compound No. 39)) were synthesized as control compounds. Their IC50 values (μM) were calculated in the same way as above and then compared with that of the compound of the present invention.

[1] = test system: SU-DHL-6 cells (diffuse large-cell lymphoma cell line); test: Cell growth inhibition test; format: cell-based; details: Homo sapiens, 72 h; SU-DHL-6 cells, 3 days culture, Table 96; read-out: Cell growth inhibition IC50
Protocol: The compound of the present invention was serially diluted with dimethyl sulfoxide and then added to an RPMI1640 medium containing 10% FBS. Each resulting solution was added at a concentration of 100 μl/well to the preceding SU-DHL-6 cell culture plate (final concentration of the compound: 10, 3, 1, 0.3, 0.1, 0.03, 0.01, and 0.003 μM). The cells were cultured at 37° C. for 3 days in an incubator containing 5% CO2. The cells thus cultured were left at room temperature for 30 minutes and then centrifuged at 1500 rpm for 3 minutes using a centrifuge (Hitachi Koki Co., Ltd., Himac CF7D2). A 100 μl aliquot of the supernatant was removed from each well to allow 100 μl of the cell culture solution to remain therein. This 100 μl of the remaining cell culture solution was supplemented with an equal amount of CellTiter-Glo Luminescent Cell Viability Assay (Promega KK, Cat#: G7573), and the mixture was then shaken for 1 minute using a plate mixer. The reaction solution was left in the dark for 10 minutes. Then, luminescence intensity derived from live cells of each well was measured using a microplate reader (PerkinElmer Inc., ARVOsx). […] Likewise, the IC50 values (μM) of the control compounds were also calculated and then compared with that of the compound of the present invention. Rate of cell growth inhibition(%)=(C−T)/C×100 T: luminescence intensity (count per second) of a well supplemented with the test compound C: luminescence intensity (count per second) of a well non-supplemented with the test compound

Compound	IC50 (human Syk protein)	IC50 [1]
NC(=O)c1nnc(N[C@@H]2CCCC[C@@H]2N)nc1Nc1cccc2c1ccn2C1COC1 [Example 34, 3-((1R,2S)-2-aminocyclohexylamino)-5-(1-(oxetan-3-yl)-H-indol-4-ylamino)-1,2,4-triazine-6-carboxamide]	0.42 nM	65 nM
NC(=O)c1nnc(N[C@@H]2CCCC[C@@H]2N)nc1Nc1cccc2c1ccn2CCF [Example 35, 3-((1R,2S)-2-aminocyclohexylamino)-5-(1-(2-fluoroethyl)-1H-indol-4-ylamino)-1,2,4-triazine-6-carboxamide]	0.51 nM	107 nM
NC(=O)c1nnc(N[C@@H]2CCCC[C@@H]2N)nc1Nc1ccc2nn(C(F)F)cc2c1 [Example 57, 3-((1R,2S)-2-aminocyclohexylamino)-5-(2-(difluoromethyl)-2H-indazol-5-ylamino)-1,2,4-triazine-6-carboxamide]	0.52 nM	179 nM
Cc1cc(Nc2nc(N[C@@H]3CCCC[C@@H]3N)nnc2C(N)=O)c2ccn(C)c2c1 [Example 60, 3-(((1R,2S)-2-aminocyclohexyl)amino)-5-((1,6-dimethyl-1H-indol-4-yl)amino)-1,2,4-triazine-6-carboxamide]	0.33 nM	106 nM
Cc1cc(Nc2nc(N[C@@H]3CCOC[C@@H]3N)nnc2C(N)=O)cc2cn(C(C)(C)C)nc12 [Example 61, 3-(((3R,4R)-3-aminotetrahydro-2H-pyran-4-yl)amino)-5-((2-(tert-butyl)-7-methyl-2H-indazol-5-yl)amino)-1,2,4-triazine-6-carboxamide]	0.37 nM	164 nM
Cn1cc2cc(Nc3nc(N[C@@H]4CCCC[C@@H]4N)nnc3C(N)=O)cc(-c3ccccc3)c2n1 [Example 65, 3-(((1R,2S)-2-aminocyclohexyl)amino)-5-((2-methyl-7-phenyl-2H-indazol-5-yl)amino)-1,2,4-triazine-6-carboxamide]	0.23 nM	24 nM
Cn1cc(-n2ccc3c(Nc4nc(N[C@@H]5CCCC[C@@H]5N)nnc4C(N)=O)cccc32)cn1 [Example 67, 3-(((1R,2S)-2-aminocyclohexyl)amino)-5-((1-(1-methyl-1H-pyrazol-4-yl)-1H-indol-4-yl)amino)-1,2,4-triazine-6-carboxamide]	0.26 nM	49 nM
NC(=O)c1nnc(N[C@@H]2CCCC[C@@H]2N)nc1Nc1cccc2c1ccn2[C@H]1CC[C@H](O)CC1 [Example 73, 3-(((1R,2S)-2-aminocyclohexyl)amino)-5-((1-(trans-4-hydroxycyclohexyl)-1H-indol-4-yl)amino)-1,2,4-triazine-6-carboxamide]	0.37 nM	53 nM
NC(=O)c1nnc(N[C@@H]2CCCC[C@@H]2N)nc1Nc1cc(-c2ccccn2)cs1 [Example 77, 3-(((1R,2S)-2-aminocyclohexyl)amino)-5-((4-(pyridin-2-yl)thiophen-2-yl)amino)-1,2,4-triazine-6-carboxamide]	0.42 nM	82 nM
Cc1cc(Nc2nc(N[C@@H]3CCCC[C@@H]3N)nnc2C(N)=O)c2ccn([C@H]3CC[C@H](O)CC3)c2c1 [Example 78]	0.53 nM	85 nM
CCn1cc2cc(Nc3nc(N[C@@H]4CCCC[C@@H]4N)nnc3C(N)=O)cc(-n3cccn3)c2n1 [Example 79, 3-(((1R,2S)-2-aminocyclohexyl)amino)-5-((2-ethyl-7-(1H-pyrazol-1-yl)-2H-indazol-5-yl)amino)-1,2,4-triazine-6-carboxamide]	0.37 nM	93 nM
Cc1cc(Nc2nc(N[C@@H]3CCCC[C@@H]3N)nnc2C(N)=O)cc2nn(C)cc12 [Example 91, 3-(((1R,2S)-2-aminocyclohexyl)amino)-5-((2,4-dimethyl-2H-indazol-6-yl)amino)-1,2,4-triazine-6-carboxamide diformate]	0.26 nM	138 nM
NC(=O)c1nnc(N[C@@H]2CCCC[C@@H]2N)nc1Nc1cccc2c1ccn2CCO [Example 93, 3-(((1R,2S)-2-aminocyclohexyl)amino)-5-((1-(2-hydroxyethyl)-1H-indol-4-yl)amino)-1,2,4-triazine-6-carboxamide]	0.67 nM	149 nM
CCn1ncc2c(C)cc(Nc3nc(N[C@@H]4CCCC[C@@H]4N)nnc3C(N)=O)cc21 [Example 97, 3-(((1R,2S)-2-aminocyclohexyl)amino)-5-((1-ethyl-4-methyl-1H-indazol-6-yl)amino)-1,2,4-triazine-6-carboxamide]	0.39 nM	191 nM
CCn1ncc2ccc(Nc3nc(N[C@@H]4CCCC[C@@H]4N)nnc3C(N)=O)cc21 [Example 154]	0.43 nM	138 nM
NC(=O)c1nnc(N[C@@H]2CCCC[C@@H]2N)nc1Nc1cc(-c2ccccc2)cs1 [Example 164]	0.29 nM	92 nM
NC(=O)c1nnc(N[C@@H]2CCCC[C@@H]2N)nc1Nc1ccc2cnn(C(F)F)c2c1 [Example 165]	0.36 nM	177 nM
NC(=O)c1nnc(N[C@@H]2CCOC[C@@H]2N)nc1Nc1ccc2cnn(C(F)F)c2c1 [Example 170]	0.58 nM	178 nM
NC(=O)c1nnc(N[C@@H]2CCCC[C@@H]2N)nc1Nc1csc2ccccc12 [Example 212]	0.29 nM	128 nM
NC(=O)c1nnc(N[C@@H]2CCCC[C@@H]2N)nc1Nc1ccc2sccc2c1 [Example 220]	0.26 nM	180 nM

Other lines, results leading:

IC50 (human Syk protein)	IC50 [1]	Compound
0.35 nM	158 nM	CC[C@H](N)CNc1nnc(C(N)=O)c(Nc2cccc3sccc23)n1 [Example 245]
0.35 nM	157 nM	COC[C@H](N)[C@@H](C)Nc1nnc(C(N)=O)c(Nc2cc(C)cc3c2ccn3C)n1 [Example 256, 3-(((2R,3R)-3-amino-4-methoxybutan-2-yl)amino)-5-((1,6-dimethyl-1H-indol-4-yl)amino)-1,2,4-triazine-6-carboxamide]
0.38 nM	49 nM	Cn1cc2cc(Nc3nc(N[C@@H]4CCOC[C@@H]4N)nnc3C(N)=O)cc(-c3ccccc3)c2n1 [Example 257, 3-(((3R,4R)-3-aminotetrahydro-2H-pyran-4-yl)amino)-5-((2-methyl-7-phenyl-2H-indazol-5-yl)amino)-1,2,4-triazine-6-carboxamide]
0.29 nM	60 nM	COC[C@H](N)[C@@H](C)Nc1nnc(C(N)=O)c(Nc2cc(-c3ccccc3)c3nn(C)cc3c2)n1 [Example 258]
0.33 nM	75 nM	Cc1cc(Nc2nc(N[C@@H]3CCCC[C@@H]3N)nnc2C(N)=O)cc2cccnc12 [Example 259, 3-(((1R,2S)-2-aminocyclohexyl)amino)-5-((8-methylquinolin-6-yl)amino)-1,2,4-triazine-6-carboxamide]
0.5 nM	125 nM	Cc1cc(Nc2nc(N[C@@H]3CCCC[C@@H]3N)nnc2C(N)=O)cc2nn(C(F)F)cc12 [Example 265, 3-(((1R,2S)-2-aminocyclohexyl)amino)-5-((2-(difluoromethyl)-4-methyl-2H-indazol-6-yl)amino)-1,2,4-triazine-6-carboxamide]
0.41 nM	128 nM	Cc1cc(Nc2nc(N[C@@H]3CCOC[C@@H]3N)nnc2C(N)=O)c2ccn(C)c2c1 [Example 267]
0.95 nM	155 nM	COC[C@H](N)[C@@H](C)Nc1nnc(C(N)=O)c(Nc2cc(C)c3nn(C(C)(C)C)cc3c2)n1 [Example 274]
0.41 nM	181 nM	NC(=O)c1nnc(N[C@@H]2CCOC[C@@H]2N)nc1Nc1cccc2c1ccn2C1CCC1 [Example 277]
